Results published in the supplement of paper PMC7046801.
Structures can show the parent of a compound that is named as a salt.

Experiments:
Conditions in all cases: 24 h
[1] = test system: NHEK immortalized keratinocytes
[2] = test system: NHEK immortalized keratinocytes; assay: IC50 cell viability (CellTiter-Glo)
[3] = test system: NKTC primary neonatal keratinocytes; assay: IC50 cell viability (CellTiter-Glo)
[4] = test system: NKTC primary neonatal keratinocytes

Row | SMILES | IC50 cell viability (WST-8) [1] [µM] | IC50 cell viability [2] [µM] | IC50 cell viability [3] [µM] | IC50 cell viability (WST-8) [4] [µM]
1 | O=c1[nH]sc2ccccc12 [1,2-Benzisothiazolin-3-one] | 1.68 | 1.26 | 16 | 21.4
2 | N#CCCC(Br)(C#N)CBr (centres undefined) [1,2-Dibromo-2,4-dicyanobutane] | > 88 | 60.4 | 77.7 | > 88
3 | C[C@H](O)CCO [1,3-Butanediol] | 5.52 | 13.5 |  | 
4 | O=[N+]([O-])c1ccc(Cl)c([N+](=O)[O-])c1 [1-Chloro-2,4-dinitrobenzene] | 4.76 | 5.43 | 9.18 | 9.18
5 | CCCCCCCCCCCCN1CCCC1=O [1-Dodecyl-2-pyrrolidinone] | 15.8 | 18.4 | 29.1 | 
6 | O=C(c1ccccc1)c1ccc(O)cc1O [2,4-Dihydroxybenzophenone] | 44.4 | 58.1 |  | 
7 | C=CC(=O)OCCO [2-Hydroxyethyl acrylate] | 17.4 | 35.1 |  | 
8 | Cn1sccc1=O [2-Methyl-4-isothiazolin-3-one hydrochloride] | 32.2 | 39.9 |  | 
9 | CCCCNC(=O)OCC#CI [3-Iodo-2-propynyl-N-butylcarbamate] | > 88 | 76.7 |  | 
10 | COc1ccc(C(C)=O)cc1 [4'-Methoxyacetophenone] | 53.4 | 55.5 |  | 
11 | Cc1c2ccccc2c(C)c2c1ccc1ccccc12 [7,12-Dimethylbenz(a)anthracene] | 46.2 | 46.2 | 46.2 | 46.2
12 | CCCCCCCCCCCC[N+](C)(C)Cc1ccccc1 [Benzyldimethyldodecylammonium chloride] | 3.36 | 2.91 | 43.1 | 22.2
13 | CC(C)(c1ccc(OCC2CO2)cc1)c1ccc(OCC2CO2)cc1 (centres undefined) [Bisphenol A diglycidyl ether] | 43.7 | 39.1 | 71.2 | 65.2
14 | O=[N+]([O-])C(Br)(CO)CO [Bronopol] | 24.9 | 24.1 | 73.2 | 53.8
15 | CC1=CC(=C(c2ccc(N)cc2)c2ccc(N)cc2)C=CC1=N [C.I. Basic Violet 14] |  | 1.16 |  | 
16 | CC(C)(C)C(=O)C(Oc1ccc(Cl)cc1)n1ccnc1 (centres undefined) [Climbazole] |  | 0.42 |  | 
17 | O=C1OC2(c3cc(Br)c(O)c(Br)c3Oc3c2cc(Br)c(O)c3Br)c2c(Cl)c(Cl)c(Cl)c(Cl)c21 [D&C Red 27] |  | 44.9 | 28.1 | 22.3
18 | O=c1c(-c2ccccc2)c1-c1ccccc1 [Diphenylcyclopropenone] | 36.6 | 30.8 | 5.69 | 5.47
19 | CCCCCCCCCCCC(=O)O [Dodecanoic acid] | 58.1 | 58.1 | > 88 | > 88
20 | CCCCCCCCCCCCOC(=O)c1cc(O)c(O)c(O)c1 [Dodecyl gallate] | 23.5 | 21 |  | 
21 | CCCCCCCCCCCCc1ccc(S(=O)(=O)O)cc1 [Dodecylbenzenesulfonic acid] | 29.5 | 25.8 | 29.9 | 23
22 | Cc1ccc(/C=C2/C(=O)C3(C)CCC2C3(C)C)cc1 (centres undefined) [Enzacamene] | > 88 | 71.3 | 71.6 | > 88
23 | CCCCN(CCC(=O)OCC)C(C)=O [Ethyl 3-(N-butylacetamido)propionate] |  | 21 |  | 
24 | O=CCCCC=O [Glutaraldehyde] | 24.4 | 20.2 | > 88 | > 88
25 | Oc1c(Cl)cc(Cl)c(Cl)c1Cc1c(O)c(Cl)cc(Cl)c1Cl [Hexachlorophene] | 0.37 | 0.39 | 18.8 | 2.28

Row | SMILES | IC50 cell viability (WST-8) [1] [µM] | IC50 cell viability [2] [µM] | IC50 cell viability [3] [µM] | IC50 cell viability (WST-8) [4] [µM]
26 | CC1(C)CNC(=NN=C(/C=C/c2ccc(C(F)(F)F)cc2)/C=C/c2ccc(C(F)(F)F)cc2)NC1 [Hydramethylnon] | 27 | 17 | 38.9 | 51.3
27 | Oc1ccc(O)cc1 [Hydroquinone] |  | 39.1 |  | 
28 | C=CC(=O)OCCCCCCCC(C)C [Isodecyl acrylate] | 1.54 | 3.55 |  | 
29 | CC(=O)N1CCN(c2ccc(OCC3COC(Cn4ccnc4)(c4ccc(Cl)cc4Cl)O3)cc2)CC1 (centres undefined) [Ketoconazole] | 14 | 26.4 |  | 
30 | CN=C1C=CC(=C(c2ccc(N(C)C)cc2)c2ccc(N(C)C)cc2)C=C1 [Methyl Violet] | 0.51 | 0.64 |  | 
31 | CN(C)c1ccc(C(=C2C=CC(=[N+](C)C)C=C2)c2ccc(N(C)C)cc2)cc1 [Methylrosaniline chloride] | 1.51 | 1.99 | 41.5 | 42.8
32 | CCCCC(CC)COC(=O)C(C#N)=C(c1ccccc1)c1ccccc1 (centres undefined) [Octocrylene] | 9.8 | 16.6 |  | 
33 | Oc1c(Cl)c(Cl)c(Cl)c(Cl)c1Cl [Pentachlorophenol] | 0.12 | 0.51 | 4.23 | 1.18
34 | O=C1C=CC(=C(c2ccc(O)cc2)c2ccccc2S(=O)(=O)O)C=C1 [Phenol Red sodium salt] |  | 79.9 |  | 
35 | O=CCc1ccccc1 [Phenylacetaldehyde] | > 88 | > 88 |  | 
36 | CC(=O)[O][Hg][c]1ccccc1 [Phenylmercuric acetate] | 0.01 | 0.06 | 0.37 | 0.38
37 | CCCCCCCCCCCCCCCCOCCOCCOCCOCCOCCOCCOCCOCCOCCOCCOCCOCCOCCOCCOCCOCCOCCOCCOCCOCCO [Polyethylene glycol (20) hexadecyl ether] | 13.3 |  |  | 
38 | [K+].[K+].[O]=[Cr](=[O])([O-])[O][Cr](=[O])(=[O])[O-] [Potassium dichromate] | 1.97 | 1.66 | 2.53 | 2.3
39 | CC(=O)OCC(C)OC(C)=O (centres undefined) [Propylene glycol diacetate] | 27.7 | 35.7 |  | 
40 | C=C/C=C\CC1=C(C)[C@@H](OC(=O)[C@@H]2[C@@H](/C=C(\C)C(=O)OC)C2(C)C)CC1=O.C=C/C=C\CC1=C(C)[C@@H](OC(=O)[C@@H]2[C@@H](C=C(C)C)C2(C)C)CC1=O [Pyrethrins] | 34.8 |  |  | 
41 | CCN(CC)c1ccc2c(-c3ccccc3C(=O)O)c3ccc(=[N+](CC)CC)cc-3oc2c1 [Rhodamine B] |  | 42.8 |  | 
42 | COC(C)(C)CCC[C@H](C)C/C=C/C(C)=C/C(=O)OC(C)C [S-Methoprene] | 82.5 | 82.5 |  | 
43 | CCN(CC)c1ccc(C(=C2C=CC(=[N+](CC)CC)C=C2)c2ccc(S(=O)(=O)O)cc2S(=O)(=O)[O-])cc1 [Sulfan blue] |  | 41.3 |  | 
44 | N#CC(Cl)(Cl)Cl [Trichloroacetonitrile] | 1.2 | 0.8 | 5.34 | 6.07
45 | O=C(Nc1ccc(Cl)cc1)Nc1ccc(Cl)c(Cl)c1 [Triclocarban] | 2.31 | 2.7 | 6.78 | 
46 | Oc1cc(Cl)ccc1Oc1ccc(Cl)cc1Cl [Triclosan] | > 88 | 55.1 | > 88 | 87.4
47 | C=CC(=O)OCC(CC)(COC(=O)C=C)COC(=O)C=C [Trimethylolpropane triacrylate] | 24.9 | 24.9 | 20.6 | 24.9
48 | C=C1CC[C@H](O)C/C1=C/C=C1\CCC[C@]2(C)[C@@H]([C@H](C)CCCC(C)C)CC[C@@H]12 [Vitamin D3] | 12.7 | 13.7 |  | 
49 | CNc1ccc(O)cc1 [p-Methylaminophenol sulfate] | 8.53 | 6.78 | 24.3 | 13.9
50 | CC(C)(C)c1cc(O)ccc1O [tert-Butylhydroquinone] | > 88 | 77.7 | 58.1 | 
